Data on 22 compounds can be found in patent EP4737449A1 (Changchun Genescience Pharmaceutical Co., Ltd., priority 2023, dated 2025).

Molecules are shown by their SMILES.

For the assay, the target named is T1, p53-Y220C mutant protein (Homo sapiens, UniProt P04637, Y220C).
T1 construct: The recombinant Y220C p53 DBD protein with his-tag
The assay is described as follows: In vitro DNA binding activity assay (TR-FRET). In kind it is biochemical. The conditions noted are these: concentration required to increase the binding activity of protein to DNA by 50%. The procedure:
The activity of the compound to modulate the binding of the p53-Y220C mutant protein to DNA was detected using TR-FREt (Time-Resolved Fluorescence Resonance Energy Transfer). The recombinant Y220C p53 DBD protein with his-tag and the DNA sequence with biotin label were prepared firstly. Donor Eu(Europium)-SA(Streptavidin) can be bound to the DNA sequence through biotin, receptor for his antibody attached to alphaphycocyanin(APC, allophycocyanin), and his antibody can be bound to the Y220C p53 DBD protein with his-tag. When exposed to an excitation light with a wavelength of 340 nm, the donor Eu(Europium)-SA(Streptavidin) can emit fluorescence with a wavelength of 615 nm. If the donor and the receptor are close to each other, the donor will transfer part of the energy to the receptor and produce fluorescence with a wavelength of 665 nm. […] If there is no interaction, only 615 nm fluorescence is produced. • 1) Experimental steps • a. Adding 4 µL of dilute compound solution to each well of a 384-well microplate; • a. Adding 4 µL of 4X P53 working solution to each well of the 384-well microplate; • c. Sealing the 384-well microplate and equilibrating the system at room temperature for 60 min; • d. Adding 4 µl of biotin DNA solution to the 384-well microplate; • e. Adding 4 µl of 4X test solution (MAb Anti-6His-Eu and streptavidin-d2) to each well of the 384-well microplate; • f. Incubating overnight in the dark; and • g. Reading data of 665 nm and 615 nm wavelengths on the BMG multifunctional microplate reader. • 2) Data analysis • a. Calculating the ratio for each well (Ratio665 nm/615 nm-Ratiobackground); • b. Calculating the activity percentage (%activity) as follows: C = (Ave_Ac−Ave_Ba)/(Ave_Dc−Ave_Bd) [formula] R data = (A−Ave_Ba−CD)/(D−Ave_Bd)*(Ave_Dc−Ave_Bd) [formula] % Activity = R data/Ave_VC*100 [formula] • A: Fluorescence intensity of the sample at 665 nm; D: Fluorescence intensity of the sample at 615 nm; • Ba: Background fluorescence intensity of the culture plate at 665 nm; Bd: Background fluorescence intensity of the culture plate at 615 nm; • Dc: Background fluorescence intensity of HIS-E at 615 nm; Ac: Background fluorescence intensity of streptavidin-d2 at 665 nm); and • c. Calculating SC150 and plotting dose-effect curve
Compared to the absence of the compound of the present invention, the activation percentage of binding of the p53 mutant protein to DNA in the presence of the compound of the present invention is expressed as SC150, which indicates the concentration of the compound required to increase the DNA binding activity of the p53 mutant protein by 50%. The SC150 is calculated using Prism™.

The compound `CN1CC[C@@H](Nc2cccc3c(CC(F)(F)F)c(C#CCNC(=O)c4cnn(CC5CC5)c4)nn23)[C@@H](F)C1` [Compound 268, 1-(cyclopropylmethyl)-N-[3-(7-{[(3S,4R)-3-fluoro-1-methylpiperidin-4-yl]amino}-3-(2,2,2-trifluoroethyl)pyrazolo[1,5-a]pyridin-2-yl)prop-2-yn-1-yl]-1H-pyrazole-4-carboxamide] had an SC150 of 10 nM.
Consider `CN1CC[C@@H](Nc2cccc3c(CC(F)(F)F)c(C#CCNC(=O)c4ccccn4)nn23)[C@@H](F)C1` [Compound 075, N-[3-(7-{[(3S,4R)-3-fluoro-1-methylpiperidin-4-yl]amino}-3-(2,2,2-trifluoroethyl)pyrazolo[1,5-a]pyridin-2-yl)prop-2-yn-1-yl]pyridine-2-carboxamide], for which the SC150 was 95 nM.
Turning to `CN1CC[C@@H](Nc2cccc3c(CC(F)(F)F)c(C#CCNC(=O)c4cnn(C(C)(C)C(F)(F)F)c4)nn23)[C@@H](F)C1` [Compound 148, N-[3-(7-{[(3S,4R)-3-fluoro-1-methylpiperidin-4-yl]amino}-3-(2,2,2-trifluoroethyl)pyrazolo[1,5-a]pyridin-2-yl)prop-2-yn-1-yl]-1-(1,1,1-trifluoro-2-methylprop-2-yl)-1H-pyrazole-4-carboxamide], the SC150 is given as 27 nM.
In the case of `CN1CC[C@@H](Nc2cccc3c(CC(F)(F)F)c(C#CCNC(=O)c4cnn(C(C)(C)CF)c4)nn23)[C@@H](F)C1` [Compound 234, N-[3-(7-{[(3S,4R)-3-fluoro-1-methylpiperidin-4-yl]amino}-3-(2,2,2-trifluoroethyl)pyrazolo[1,5-a]pyridin-2-yl)prop-2-yn-1-yl]-1-(1-fluoro-2-methylpropan-2-yl)-1H-pyrazole-4-carboxamide], the SC150 came to 21 nM.
`CN1CC[C@@H](Nc2cccc3c(CC(F)(F)F)c(C#CCNC(=O)C4C5COCC54)nn23)[C@@H](F)C1` (stereo partly drawn) [Compound 240, N-[3-(7-{[(3S,4R)-3-fluoro-1-methylpiperidin-4-yl]amino}-3-(2,2,2-trifluoroethyl)pyrazolo[1,5-a]pyridin-2-yl)prop-2-yn-1-yl]-3-oxabicyclo[3.1.0]hexane-6-carboxamide] yielded an SC150 of 75 nM.
The figure for `CN1CC[C@@H](Nc2cccc3c(CC(F)(F)F)c(C#CCNC(=O)c4cnn(C5CCC5)c4)nn23)[C@@H](F)C1` [Compound 006, 1-cyclobutyl-N-[3-(7-{[(3S,4R)-3-fluoro-1-methylpiperidin-4-yl]amino}-3-(2,2,2-trifluoroethyl)pyrazolo[1,5-a]pyridin-2-yl)prop-2-yn-1-yl]-1H-pyrazole-4-carboxamide] is 11 nM.
For `CCc1cc(C(=O)NCC#Cc2nn3c(N[C@@H]4CCN(C)C[C@@H]4F)cccc3c2CC(F)(F)F)cs1` [Compound 336, 5-ethyl-N-[3-(7-{[(3S,4R)-3-fluoro-1-methylpiperidin-4-yl]amino}-3-(2,2,2-trifluoroethyl)pyrazolo[1,5-a]pyridin-2-yl)prop-2-yn-1-yl]thiophene-3-carboxamide], the SC150 worked out at 68 nM.
For `CCn1ncc(C(=O)NCC#Cc2nn3c(N[C@@H]4CCN(C)C[C@@H]4F)cccc3c2CC(F)(F)F)c1Cl` [Compound 343], the SC150 was 25 nM.
`CC(C)(C)n1ncc(C(=O)NCC#Cc2nn3c(N[C@@H]4CCN(C5CC5)C[C@@H]4F)cccc3c2CC(F)(F)F)c1N` [Compound 372, 5-amino-1-tert-butyl-N-(3-(7-{[(3S,4R)-1-cyclopropyl-3-fluoropiperidin-4-yl]amino}-3-(2,2,2-trifluoroethyl)pyrazolo[1,5-a]pyridin-2-yl)prop-2-yn-1-yl)-1H-pyrazole-4-carboxamide] displayed an SC150 of 18 nM.
The compound `CC(n1cc(C(=O)NCC#Cc2nn3c(N[C@@H]4CCN(C)C[C@@H]4F)cccc3c2CC(F)(F)F)cn1)C(F)(F)F` (stereo partly drawn) [Compound 029, N-[3-(7-{[(3S,4R)-3-fluoro-1-methylpiperidin-4-yl]amino}-3-(2,2,2-trifluoroethyl)pyrazolo[1,5-a]pyridin-2-yl)prop-2-yn-1-yl]-1-(1,1,1-trifluoroprop-2-yl)-1H-pyrazole-4-carboxamide] displayed an SC150 of 15 nM.
Compound `CN(C)C1CC[C@@H](Nc2cccc3c(CC(F)(F)F)c(C#CCNC(=O)c4cnn(C(C)(C)C)c4N)nn23)[C@@H](F)C1` (single isomer, unassigned) [Compound 358-B] yielded an SC150 of 32 nM.
`Cc1ccc(C(=O)NCC#Cc2nn3c(N[C@@H]4CCN(C)C[C@@H]4F)cccc3c2CC(F)(F)F)c(N)n1` [Compound 295, 2-amino-N-[3-(7-{[(3S,4R)-3-fluoro-1-methylpiperidin-4-yl]amino}-3-(2,2,2-trifluoroethyl)pyrazolo[1,5-a]pyridin-2-yl)prop-2-yn-1-yl]-6-methylnicotinamide] showed an SC150 of 45 nM.
`CN1CC[C@@H](Nc2cccc3c(CC(F)(F)F)c(C#CCNC(=O)c4cnn(C5CCCC5)c4)nn23)[C@@H](F)C1` [Compound 007, 1-cyclopentyl-N-[3-(7-{[(3S,4R)-3-fluoro-1-methylpiperidin-4-yl]amino}-3-(2,2,2-trifluoroethyl)pyrazolo[1,5-a]pyridin-2-yl)prop-2-yn-1-yl]-1H-pyrazole-4-carboxamide]: the SC150 is reported as 11 nM.
Regarding `CN1CC[C@@H](Nc2cccc3c(CC(F)(F)F)c(C#CCNC(=O)c4ccn5c4CCC5)nn23)[C@@H](F)C1` [Compound 302, N-[3-(7-{[(3S,4R)-3-fluoro-1-methylpiperidin-4-yl]amino}-3-(2,2,2-trifluoroethyl)pyrazolo[1,5-a]pyridin-2-yl)prop-2-yn-1-yl]-2,3-dihydro-1H-pyrrolizine-7-carboxamide], the SC150 came out at 25 nM.
`CN1CC[C@@H](Nc2cccc3c(CC(F)(F)F)c(C#CCNC(=O)c4cnn(C5(F)CC5)c4)nn23)[C@@H](F)C1` [Compound 304] yielded an SC150 of 13 nM.
Compound `CN1CC[C@@H](Nc2cccc3c(CC(F)(F)F)c(C#CCNC(=O)c4cnn(C(C)(C)C5CC5)c4)nn23)[C@@H](F)C1` [Compound 346, 1-(2-cyclopropylprop-2-yl)-N-[3-(7-{[(3S,4R)-3-fluoro-1-methylpiperidin-4-yl]amino}-3-(2,2,2-trifluoroethyl)pyrazolo[1,5-a]pyridin-2-yl)prop-2-yn-1-yl]-1H-pyrazole-4-carboxamide] showed an SC150 of 18 nM.
Consider `CN1CC[C@@H](Nc2cccc3c(CC(F)(F)F)c(C#CCNC(=O)c4cnn(CC#N)c4)nn23)[C@@H](F)C1` [Compound 249, 1-cyanomethyl-N-[3-(7-{[(3S,4R)-3-fluoro-1-methylpiperidin-4-yl]amino}-3-(2,2,2-trifluoroethyl)pyrazolo[1,5-a]pyridin-2-yl)prop-2-yn-1-yl]-1H-pyrazole-4-carboxamide], for which the SC150 was found to be 17 nM.
For `CN1CC[C@@H](Nc2cccc3c(CC(F)(F)F)c(C#CCNC(=O)c4cnn(CC(C)(C)C)c4N)nn23)[C@@H](F)C1` [Compound 287], the SC150 was determined as 23 nM.
For `CCc1c(C#CCNC(=O)c2cnn(C(C)(C)C)c2N)nn2c(N[C@@H]3CCN(C)C[C@@H]3F)cccc12` [Compound 348, 5-amino-1-tert-butyl-N-[3-(3-ethyl-7-{[(3S,4R)-3-fluoro-1-methylpiperidin-4-yl]amino}-pyrazolo[1,5-a]pyridin-2-yl)prop-2-yn-1-yl]-1H-pyrazole-4-carboxamide], the SC150 is on record as 28 nM.
In turn, `CN1CC[C@@H](Nc2cccc3c(CC(F)(F)F)c(C#CCNC(=O)c4cn(CC(C)(C)C)nc4N)nn23)[C@@H](F)C1` [Compound 352] displayed an SC150 of 13 nM.
For `CN1CCC(Nc2cccc3c(CC(F)(F)F)c(C#CCNC(=O)c4cnn(C(C)(C)C)c4N)nn23)C1` (stereo not shown) [Compound 366, 5-amino-1-tert-butyl-N-(3-(7-[(1-methylpyrrolidin-3-yl)amino]-3-(2,2,2-trifluoroethyl)pyrazolo[1,5-a]pyridin-2-yl)prop-2-yn-1-yl)-1H-pyrazole-4-carboxamide], the SC150 came out at 30 nM.
As for `CN1CC[C@@H](Nc2cccc3c(CC(F)(F)F)c(C#CCNC(=O)c4cccc(F)c4)nn23)[C@@H](F)C1` [Compound 339, 3-fluoro-N-[3-(7-{[(3S,4R)-3-fluoro-1-methylpiperidin-4-yl]amino}-3-(2,2,2-trifluoroethyl)pyrazolo[1,5-a]pyridin-2-yl)prop-2-yn-1-yl]benzamide], the SC150 is 92 nM.
